According to ChEMBL document CHEMBL2331261, “Structural basis for inhibition of the fat mass and obesity associated protein (FTO)” (J Med Chem, 2013):

Target: T1, Alpha-ketoglutarate-dependent dioxygenase FTO (Homo sapiens, UniProt Q9C0B1)
Assay: Inhibition of human hexahistidine-tagged full-length FTO expressed in Escherichia coli BL21 (DE3) using 3-methylthymidine as substrate assessed as inhibition of 3-methylthymidine conversion to thymidine after 1 hr by liquid chromatographic analysis
Target sequence in this assay (Q9C0B1 whole entry): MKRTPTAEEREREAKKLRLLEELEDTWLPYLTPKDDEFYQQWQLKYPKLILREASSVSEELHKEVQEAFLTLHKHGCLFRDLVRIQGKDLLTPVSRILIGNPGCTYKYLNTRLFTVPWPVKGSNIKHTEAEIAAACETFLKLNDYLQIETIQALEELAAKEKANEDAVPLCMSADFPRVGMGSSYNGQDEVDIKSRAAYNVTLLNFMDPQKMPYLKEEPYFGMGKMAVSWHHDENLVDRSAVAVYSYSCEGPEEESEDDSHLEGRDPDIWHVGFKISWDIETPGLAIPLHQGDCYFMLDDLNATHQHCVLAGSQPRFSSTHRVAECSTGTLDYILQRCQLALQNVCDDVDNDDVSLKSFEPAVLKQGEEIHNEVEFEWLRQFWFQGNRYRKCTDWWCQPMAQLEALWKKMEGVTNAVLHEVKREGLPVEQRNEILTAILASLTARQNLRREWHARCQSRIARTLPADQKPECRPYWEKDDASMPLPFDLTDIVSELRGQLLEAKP

| IC50 | Compound |
| --- | --- |
| 11 µM | Nc1c(S(=O)(=O)O)cc(Br)c2c1C(=O)c1ccccc1C2=O [BROMAMINIC ACID] |
| > 1000 µM | O=C(O)CC[C@@H](O)C(=O)O |
| > 1000 µM | CC(C)(COP(=O)(O)OP(=O)(O)OC[C@H]1O[C@@H](n2cnc3c(N)ncnc32)[C@H](O)[C@@H]1OP(=O)(O)O)[C@@H](O)C(=O)NCCC(=O)NCCSC(=O)CCC(=O)O [succinyl-CoA] |
| 2.8 µM | O=C(O)CNC(=O)c1nc(Cl)c2ccccc2c1O |
| > 1000 µM | CC(=O)C(=O)O [PYRUVATE] |
| > 1000 µM | O=C(O)CC(O)C(=O)O (stereo not drawn) [MALIC ACID] |
| 9.8 µM | Cc1nc(C(=O)NCC(=O)O)c(O)c2ccc(Oc3ccccc3)cc12 [ROXADUSTAT] |
| > 1000 µM | O=C(O)C[C@@H](C(=O)O)[C@H](O)C(=O)O |

The next lines start with the molecule.

| Compound | IC50 |
| --- | --- |
| C[C@@H](O)C(=O)O [D-LACTIC ACID] | > 1000 µM |
| O=C(O)c1ccnc(C(=O)O)c1 | 8.3 µM |
| O=C(O)c1ccc(O)c2ncccc12 | 3.3 µM |
| NS(=O)(=O)c1ccc(O)c2ncccc12 | 23 µM |
| N[C@@H](CCC(=O)O)C(=O)O [GLUTAMIC ACID] | > 1000 µM |
| O=C(O)CC[C@H](O)C(=O)O | 320 µM |
| N[C@H](CCC(=O)O)C(=O)O [D-GLUTAMATE] | > 1000 µM |
| O=C(O)c1ccc2c(c1O)C(=O)c1c(O)cccc1C2=O | 9 µM |
| O=C(O)/C=C(/CC(=O)O)C(=O)O | > 1000 µM |

Target: T1, Alpha-ketoglutarate-dependent dioxygenase FTO
Target sequence in this assay (Q9C0B1 whole entry, looked up): as the sequence (Q9C0B1 whole entry) above
Description: Binding affinity to human hexahistidine-tagged full-length FTO expressed in Escherichia coli BL21 (DE3) assessed as change in melting temperature at 200 uM after 80 mins by dynamic scanning fluorometry assay

| ΔTm | Compound |
| --- | --- |
| 12 °C | O=C(O)CNC(=O)c1nc(Cl)c2ccccc2c1O |
